Assay results as given in patent US10774053B2, “HIV protease inhibitors” (Gilead Sciences, Inc., priority 2017, dated 2020).

system: HIV-1 (IIIB) in MT-4 cells; experiment: microbe, parasite or virus in culture; format: cell-based; details: Human immunodeficiency virus 1, IIIB, MT4, MT-4 cells, HIV-1; read-out: MT4 EC50
Protocol: Compounds were serially diluted (1:3) in DMSO on 384-well polypropylene plates and further diluted 200-fold into complete RPMI media (10% FBS, 1% P/S) using the Biotek Micro Flow and Agilent ECHO acoustic dispenser. Each plate contained up to 8 test compounds, with negative (No Drug Control) and 5 uM AZT positive controls. MT-4 cells were pre-infected with 10 uL of either RPMI (mock-infected) or a fresh 1:250 dilution of an HIV-1 (IIIB) concentrated virus stock. Infected and uninfected MT-4 cells were further diluted in complete RPMI media and added to each plate using a Micro Flow dispenser. After 5 days incubation in a humidified and temperature controlled incubator (37° C.), Cell Titer Glo (Promega) was added to the assay plates to quantify the amount of luciferase.

Compound | EC50 [nM]
CC(C)(C)C[C@]1(c2ccc(-c3ncccn3)cc2)NC(=N)N([C@H](COC(=O)NC2(C(F)(F)F)CC2)c2ccc(Cl)c(-n3ncnc3C(F)F)c2)C1=O [Compound 187] | 11.6
CC(C)(C)C[C@]1(c2ccc(-c3cnn(C(F)F)c3)cc2)NC(=N)N([C@H](COC(=O)NC2(C)CC2)c2ccc(Cl)c(-n3ncnc3C(F)F)c2)C1=O [Compound 178] | 9.99
CC(C)(C)C[C@]1(c2ccc(-c3cnn(C(F)F)c3)cc2)NC(=N)N([C@H](COC(=O)NC2(C)CC2)c2ccc(Cl)c(-c3ccccn3)c2)C1=O [Compound 47] | 60.9
Cn1ccc(-c2ccc([C@@]3(CC(C)(C)C)NC(=N)N([C@H](COC(=O)NC4(C(F)(F)F)CC4)c4ccc(Cl)c(-n5ncnc5C(F)F)c4)C3=O)c(F)c2)n1 [Compound 210] | 6.94
CC(C)(C)C[C@]1(c2ccc(-c3cnn(C4CC4)n3)c(F)c2F)NC(=N)N([C@H](COC(=O)NC2(C(F)(F)F)CC2)c2ccc(Cl)c(-n3ncnc3C(F)F)c2)C1=O [Compound 227] | 25.4
CC(C)(C)C[C@]1(c2ccc(C#CC(C)(C)S(C)(=O)=O)cc2)NC(=N)N([C@H](COC(=O)NC(C)(C)C(F)F)c2ccc(Cl)c(-n3cncn3)c2)C1=O [Compound 377] | 90.7
CC(C)(C)C[C@]1(c2ccc(-c3cnn(C(F)F)c3)cc2)NC(=N)N([C@H](COC(=O)NC2CC2)c2ccc(Cl)c(-n3cncn3)c2)C1=O [Compound 235] | 9.61
C[C@H](NC(=O)OC[C@H](c1ccc(Cl)c(-c2ncnn2C(F)F)c1)N1C(=N)N[C@](CC(C)(C)C2CC2)(c2ccc(-c3cnn(C4CC4)n3)cc2)C1=O)C(F)(F)F [Compound 150] | 9.92
CC(C)(C)C[C@]1(c2ccc(-c3ccns3)cc2)NC(=N)N([C@H](COC(=O)NC2(C(F)(F)F)CC2)c2ccc(Cl)c(-n3cncn3)c2)C1=O [Compound 321] | 20.8
CC(C)(C)C[C@]1(c2ccc(-c3cnn(C(F)F)c3)cc2)NC(=N)N([C@H](COC(=O)NC23CC(C(F)(F)F)(C2)C3)c2ccc(Cl)c(-n3cncn3)c2)C1=O [Compound 248] | 70.3
CC(C)(C)C[C@]1(c2ccc(-c3cnn(C(F)F)c3)cc2)NC(=N)N([C@H](COC(=O)N[C@H]2C[C@H]2F)c2ccc(Cl)c(-n3ncnc3C(F)F)c2)C1=O [Compound 288] | 6.07
CC(C)(C)C[C@]1(c2ccc(-c3cnn(C(F)F)c3)cc2)NC(=N)N([C@H](COC(=O)NC2(C)CC2)c2ccc(Cl)c(-n3ncnc3C3CC3)c2)C1=O [Compound 252] | 20.7
CC(C)(C)C[C@]1(c2ccc(-c3cncs3)cc2F)NC(=N)N([C@H](COC(=O)NC2(C(F)(F)F)CC2)c2ccc(Cl)c(-n3ncnc3C(F)F)c2)C1=O [Compound 199] | 7.6
CC(C)(C)C[C@]1(c2ccc(-c3cnn(C4CC4)c3)cc2)NC(=N)N([C@H](COC(=O)NC2CC2)c2ccc(Cl)c(-n3cncn3)c2)C1=O [Compound 243] | 9.11
Cn1cc(-c2cc([C@@H](COC(=O)NC3CC3)N3C(=N)N[C@](CC(C)(C)C)(c4ccc(-c5cnn(C(F)F)c5)cc4)C3=O)ccc2Cl)nn1 [Compound 41] | 18.1
CN(C)C(=O)OC[C@H](c1ccc(Cl)c(-c2nccs2)c1)N1C(=N)N[C@@](c2cc(F)cc(F)c2)(C2CC2)C1=O [Compound 5] | 5710
CC(C)(C)C[C@]1(c2ccc(-c3cnn(C(F)F)c3)cc2)NC(=N)N([C@H](COC(=O)N2CC(F)(F)C2)c2ccc(Cl)c(-n3ncnc3C(F)F)c2)C1=O [Compound 184] | 9.93
CC(C)(C)C[C@]1(c2ccc(-c3cnn(C(F)F)c3)cc2)NC(=N)N([C@H](COC(=O)NC2CC2)c2ccc(Cl)c(-c3ncnn3C(F)F)c2)C1=O [Compound 35] | 98.1
Cc1ncoc1-c1cccc([C@@H](COC(=O)NC(C)C)N2C(=N)N[C@](CC(C)C)(c3ccccc3)C2=O)c1 [Compound 7] | 57100
CC1(NC(=O)OC[C@H](c2ccc(Cl)c(-n3cccn3)c2)N2C(=N)N[C@](CC(C)(C)C(F)(F)F)(c3ccc(Cl)cc3)C2=O)CC1 [Compound 263] | 748
Cn1ccc(-c2ccc([C@@]3(CC(C)(C)C)NC(=N)N([C@H](COC(=O)NC4(C(F)(F)F)CC4)c4ccc(Cl)c(-n5ncnc5C(F)F)c4)C3=O)cc2)n1 [Compound 206] | 6.74
CC(C)(C)C[C@]1(c2ccc(-c3cnccn3)cc2)NC(=N)N([C@H](COC(=O)NC2CC2)c2ccc(Cl)c(-c3ncn[nH]3)c2)C1=O [Compound 28] | 91.7
[H]/N=C1\N[C@](CC(C)(C)C)(c2ccc(-c3cnn(C(F)F)c3)cc2)C(=O)N1[C@H](COC(=O)NC1CC1)c1ccc(Cl)c(-c2ncns2)c1 [Compound 48] | 80

Compound | EC50 [nM]
[2H]C([2H])([2H])OC(=O)NC[C@H](c1ccc(Cl)c(-n2ncnc2C(F)F)c1)N1C(=N)N[C@](CC(C)(C)C(F)(F)F)(c2ccc(-c3cnn(C4CC4)n3)cc2)C1=O [Compound 393] | 27
CC(C)(F)C[C@]1(c2ccc(Br)cc2)NC(=N)N([C@H](COC(=O)NC(C)(C)C(F)F)c2ccc(Cl)c(-c3ncnn3C(F)F)c2)C1=O [Compound 126] | 242
CC(C)(F)C[C@]1(c2ccc(-c3ncccn3)cc2F)NC(=N)N([C@H](COC(=O)NC(C)(C)C(F)F)c2ccc(Cl)c(-c3ncnn3C(F)F)c2)C1=O [Compound 132] | 48
CC(C)(C)C[C@]1(c2ccc(-c3cnn(C(F)F)c3)cc2)NC(=N)N([C@H](COC(=O)N2CC3(COC3)C2)c2ccc(Cl)c(-c3ncn[nH]3)c2)C1=O [Compound 82] | 180
CC(C)(C)C[C@]1(c2ccc(-c3ccc4c(c3)OC(F)(F)O4)cc2)NC(=N)N([C@H](COC(=O)NC2(C(F)(F)F)CC2)c2ccc(Cl)c(-n3ncnc3C(F)F)c2)C1=O [Compound 283] | 113
[2H]C([2H])([2H])n1cnc(-c2cc([C@@H](COC(=O)NC(C)(C)C(F)F)N3C(=N)N[C@](C[C@@]4(C)CC4(F)F)(c4ccc(-c5cnn(C(F)F)c5)cc4)C3=O)ccc2Cl)n1 [Compound 96] | 83.7
Cn1nnnc1-c1ccc([C@@]2(CC(C)(C)C)NC(=N)N([C@H](COC(=O)NC3(C(F)(F)F)CC3)c3ccc(Cl)c(-n4ncnc4C(F)F)c3)C2=O)cc1 [Compound 358] | 76.2
CC1(NC(=O)OC[C@H](c2ccc(Cl)c(-n3cccn3)c2)N2C(=N)N[C@](CC(C)(C)C(F)(F)F)(c3ccc(-c4cnn(C(F)F)c4)cc3)C2=O)CC1 [Compound 323] | 50.7
CC(C)(C)C[C@]1(c2ccc(-c3ccccn3)cc2)NC(=N)N([C@H](COC(=O)NC2(C(F)(F)F)CC2)c2ccc(Cl)c(-n3ncnc3C(F)F)c2)C1=O [Compound 190] | 22.6
CC(C)(C)C[C@]1(c2ccc3nc(C4CC4)ccc3c2)NC(=N)N([C@H](COC(=O)NC2(C(F)(F)F)CC2)c2ccc(Cl)c(-n3ncnc3C(F)F)c2)C1=O [Compound 353] | 8.59
CC(C)(C[C@]1(c2ccc(-c3cnn(C(F)F)c3)cc2)NC(=N)N([C@H](COC(=O)NC2(C(F)(F)F)CC2)c2ccc(Cl)c(-n3ncnc3C(F)F)c2)C1=O)C1CC1 [Compound 231] | 12.2
CC(C)(C)C[C@]1(c2ccc(-c3cn(C4CC4)nc3F)cc2)NC(=N)N([C@H](COC(=O)NC2(C(F)(F)F)CC2)c2ccc(Cl)c(-n3ncnc3C(F)F)c2)C1=O [Compound 318] | 13.2
COc1ccc([C@@]2(CC(C)(C)C)NC(=N)N([C@H](COC(=O)N(C)C)c3ccc(Cl)c(-c4nccn4C)c3)C2=O)c(F)c1 [Compound 9] | 1690
CC(C)(C)C[C@]1(c2ccc(-n3cc(F)cn3)cc2)NC(=N)N([C@H](COC(=O)NC2(C(F)(F)F)CC2)c2ccc(Cl)c(-c3ncnn3C(F)F)c2)C1=O [Compound 138] | 11.5
CC(C)(C)C[C@]1(c2ccc(-c3cnn(C(F)F)c3)cc2)NC(=N)N([C@H](COC(=O)NC2(C)CC2)c2ccc(Cl)c(-n3cc(C#N)cn3)c2)C1=O [Compound 265] | 17.9
C[C@@H](C(=O)NC[C@H](c1ccc(Cl)c(-n2ncnc2C(F)F)c1)N1C(=N)N[C@](CC(C)(C)C)(c2ccc(-c3cnn(C4CC4)n3)cc2)C1=O)C(F)(F)F [Compound 386] | 23.4
CC(C)(C)C[C@]1(c2ccc(-c3cnn(C4CC4)c3)cc2)NC(=N)N([C@H](COC(=O)NC(C)(C)C(F)F)c2ccc(Cl)c(-c3ncn[nH]3)c2)C1=O [Compound 79] | 64.5
CC(C)(C)C[C@]1(c2ccc(-c3cnn(C(F)F)c3)cc2)NC(=N)N([C@H](COC(=O)NC(C)(C)C(F)(F)F)c2ccc(Cl)c(-c3ncn[nH]3)c2)C1=O [Compound 45] | 31.7
CC(C)(C)C[C@]1(c2ccc(-c3cnn(C(F)F)c3)cc2)NC(=N)N([C@H](COC(=O)N(CC(F)F)C2CC2)c2ccc(Cl)c(-c3ncn[nH]3)c2)C1=O [Compound 80] | 28.8
CC(C)(C)C[C@]1(c2ccc(-c3ccccn3)cc2F)NC(=N)N([C@H](COC(=O)NC2(C(F)(F)F)CC2)c2ccc(Cl)c(-c3ncn[nH]3)c2)C1=O [Compound 116] | 42.6
CC(C)(C[C@]1(c2ccc(-c3cnn(C4CC4)n3)cc2)NC(=N)N([C@H](COC(=O)NC2(C(F)(F)F)CC2)c2ccc(Cl)c(-c3ncnn3C(F)F)c2)C1=O)C1CC1 [Compound 149] | 11.9
Cc1nnc(-c2cc([C@@H](COC(=O)NC3CC3)N3C(=N)N[C@](CC(C)(C)C)(c4ccc(-c5cnn(C(F)F)c5)cc4)C3=O)ccc2Cl)[nH]1 [Compound 40] | 84.1
C[C@H](NC(=O)OC[C@H](c1ccc(Cl)c(-n2ncnc2C(F)F)c1)N1C(=N)N[C@](CC(C)(C)C)(c2ccc(-c3cnn(C4CC4)c3)c(F)c2)C1=O)C(F)(F)F [Compound 314] | 8.19

same assay, conditions: MT-4 cells, HIV-1; read-out: MT4 EC50

Compound | EC50 [nM]
CC(C)(C)C[C@]1(c2ccc(-c3ccnn3C(F)F)cc2)NC(=N)N([C@H](COC(=O)NC2(C(F)(F)F)CC2)c2ccc(Cl)c(-n3ncnc3C(F)F)c2)C1=O [Compound 213] | 25.5
